Results from US20110136141A1, “PEPTIDE REAGENTS AND METHOD FOR INHIBITING AUTOANTIBODY ANTIGEN BINDING” (Abbott Laboratories, priority 2009, published 2011).
The star is where a group is joined. Biotin = O=C1N[C@H]2[C@H](CS[C@H]2CCCCC(=O)*)N1

Tested on: endogenous antibodies to cardiac troponin-I (binding to recombinant human cardiac troponin-I)
Experiment: Inhibition of anti-cTnI autoantibody binding to cardiac troponin-I (microplate chemiluminescent immunoassay)
Experimental: Inhibitor working solutions: The peptides listed in Table 12 (obtained from Sigma-Genosys, PEPscreen custom library) were diluted in AxSYM® Troponin-I ADV Preincubation Diluent to give solutions ranging from 240 nmol/mL to 0 nmol/mL. An equimolar mixture of the peptides listed in Table 12 was prepared and diluted to give solutions ranging from 240 nmol/mL to 0 nmol/mL/.
Microplate preparation: Recombinant human cardiac troponin-I (cTnI, BiosPacific, Emeryville, Calif.) was coated on white high-binding flat-bottom 96-well polystyrene microplates (Costar) in phosphate buffer (100 μL, 0.2 M, pH 8, 4 μg/mL) at 38° C., for 1 h, then overcoated sequentially with bovine serum albumin and 2% wt/v sucrose in PBS.
Chemiluminescent detection conjugate: A murine anti-human IgG (subtype IgG2b, kappa;) was labeled with a chemiluminescent acridinium-9-carboxamide. This antibody recognized all human IgG subtypes while having no significant reactivity toward human IgM or IgA, or rabbit, sheep or goat IgG. […]
Chemiluminescent detection: The microplate was loaded into a Mithras microplate reader (Berthold Technologies Inc, Oak Ridge, Tenn.) equilibrated at 28° C. The chemiluminescence signal from each well was recorded for 2 s after the sequential addition of ARCHITECT® Pre-Trigger solution (100 μL) and ARCHITECT® Trigger solution (100 μL).

In the case of “#5 (Biotin-ALSGMEGRKKKFES-NH2; SMILES CSCC[C@H](NC(=O)CNC(=O)[C@H](CO)NC(=O)[C@H](CC(C)C)NC(=O)[C@H](C)NC(=O)CCCC[C@@H]1SC[C@@H]2NC(=O)N[C@@H]21)C(=O)N[C@@H](CCC(=O)O)C(=O)NCC(=O)N[C@@H](CCCNC(=N)N)C(=O)N[C@@H](CCCCN)C(=O)N[C@@H](CCCCN)C(=O)N[C@@H](CCCCN)C(=O)N[C@@H](Cc1ccccc1)C(=O)N[C@@H](CCC(=O)O)C(=O)N[C@@H](CO)C(N)=O)”, the “ratio of signal to the low control (S/LC): inhibition of the binding of endogenous antibodies to the cTnI antigen on the microplate” value (Example 1, FIG. 11, peptides of Table 12 ([Btn] amino-terminus), 240 to 0 nmol/mL, human serum sample mixed 1:1, overnight) is reported as “greatest inhibition” and the “ratio of signal to the low control (S/LC): inhibition of the binding of endogenous antibodies to the cTnI antigen on the microplate” value (Example 2, FIG. 12, peptides of Table 13 ([Ac] amino-terminus), procedure of Example 1) is reported as “greatest inhibition”.
